Inhibition data for 21 compounds are collected here from patent US6225478A, “Iridoid derivatives and neovascularization inhibitors containing the same as active ingredient” (Tsumura & Co., priority 1999, dated 2001).

One experiment has as its system HUFEC. Put plainly: Cell Migration Assay (CMA) Test, inhibitory rate with control (-) correction. In kind it is cell-based, human. To be noted: Homo sapiens, 24 h, 125 μl of 0.32 mM sample solution in 4.0 ml medium, 80% or more = remarkable. The procedure:
(§1) Samples were prepared using the present compounds of Compound No. I-60 through I-315. More specifically, 32 μl of a 20 mM sample solution dissolved in dimethylsulfoxide (DMSO) were removed and brought to a volume of 1 ml with phosphate-buffered saline (PBS) to prepare a sample solution having a concentration of 0.32 mM (containing 3.2% DMSO).
After disseminating the 7th subculture of […] obtained from the first generation at 4 ml/well (3.0×10^5 cells/well) in a collagen-coated 6-well plate (NUNC), the cells were cultured for 48 hours at 37° C. in the presence of 5% CO2. The cells reached nearly a completely confluent state as a result of this culturing.
A double-edged, disposable razor blade was divided into four sections, of which one of those sections was pinched between a pair of forceps. Using this piece of razor blade, the cell surface in the above confluent state was scraped off.
After washing the surface of the wells from which the cells had been scraped off with medium, 4.0 ml of fresh M199 (2+) medium were placed in the wells. 4.0 ml of M199 medium were added to the control (-) well.
125 μl of sample solution (0.32 mM, containing 3.2% dimethylsulfoxide) were added to the wells.
125 μl of PBS solution containing 3.2% dimethylsulfoxide were added to the control wells instead of sample. The cells were cultured for 24 hours at 37° C. in the presence of 5% CO2. After discarding the culture liquid, the cells were fixed for 30 minutes with methanol. Next, after […] the cells for 4 hours with Giemsa stain, the plates were washed with tap water and air dried.
Measurement of cell migration was performed by microscopically counting the number of cells that had newly migrated within the range of a 1 mm×1 mm block. […] The total number of cells counted in blocks 1 through 5 were then totaled to determine the overall total number of cells. Four fields were counted for each well.
Evaluation was performed determining the cell migration inhibitory rate (%) according to the following equation.
Inhibitory rate=100-((number of migrating cells to which sample was added-number of migrating cells of control (-))×100/(number of migrating cells of control (+)-number of migrating cells of control (-)))
If this inhibitory rate was 80% or more, cell migration was assessed as being remarkable.

For experiment [1], the system named is human umbilical-vein endothelial cells (HUVEC). Put plainly: Tube Formation Assay (TFA) Test, HUVEC in collagen gel. Format: cell-based. The settings on record: Homo sapiens, HUVEC, Tables 75-83; 0.32 mM sample solution; method as for Compounds 1 through 60; read-out: TFA Inhibition rate (%). The procedure: Furthermore, the sample liquids of compounds used in the CPA and CMA tests were prepared in the manner described below. Firstly, after weighing out each compound, a calculated amount of DMSO was added. After dissolving the compound in the DMSO, phosphate buffered physiological saline (PBS (-)) was added to bring the sample concentration to 1 mg/ml in PBS (-). The amount of DMSO used to dissolve the compounds was adjusted in advance to that the concentration of DMSO at that time was 5%. The resulting liquids were diluted 10-fold with 5% DMSO-PBS (-) solution to prepare sample solutions having a concentration of 0.1 mg/ml. In the TFA test, 320 μl of the prepared 1 mg/ml sample solutions were removed followed by addition of 680 μl of PBS (-) to prepare samples having a concentration of […]. Moreover, 100 μl of this solution was removed followed by addition of 900 μl of PBS (-) to dilute 10-fold and prepare samples having a concentration of 1 μg/ml. P [Cell Proliferation Assay (CPA) Test]
To begin with, 8 volumes of Type 1-A cell matrix (manufactured by Gibco Co.), 1 volume of 10×M119, and 1 volume of reconstituted buffer [200 mM HEPES, 0.05 N sodium hydroxide, 260 mM sodium bicarbonate] were slowly mixed under cooling with ice while avoiding bubbling to form a collagen gel. This collagen gel was distributed in a NUNC 24-well plate at 310 μl/well followed by allowing to stand undisturbed for 2 hours at 37° C. to solidify the gel.
Next, the 7th subculture of HUVEC (1×10^5 cells/ml) obtained from the first generation in the same manner as above were disseminated at 500 μl/well. The cells were cultured for 2 hours at 37° C. to allow the cells to make contact with the collagen. After then removing the medium by aspiration, 50 μl of sample solution were added followed by addition of 310 μl/well of freshly prepared collagen gel and culturing for 1 hour and 10 minutes at 37° C. to solidify the double-layer gel.
1 ml/well of M-199 medium containing 20% FCS, 30 ng /ml of b-FGF and 0.1 μM PMA were added to the wells followed by culturing for 20 hours at 37° C. in the presence of 5% CO2.
Measurement of the lengths of the formed tubes was performed using the public domain NIH Image with a computer.
Evaluation was performed by calculating the inhibition rate (%) of tube formation according to the following formula.
Inhibition rate (%)=100-((formed tube length in presence of sample-formed tube length in presence of control (-))×100/(formed tube length in presence of control (+)-formed tube length in presence of control (-)))
as §1
The testing method used for these compounds was the same as that used for the compounds of Compound No. 1 through 60 previously described.

SMILES strings stand for the structures.

`COC(=O)C1=CO[C@@H](OC(=O)NCCN2CCCCC2)[C@@H]2C(C)=CC[C@H]12` [I-118]: the figures for the inhibition at 320 µM (stock) (in the experiment with HUFEC; in experiment [1]) were 31.3% and 5.1%, respectively.
`COC(=O)C1=CO[C@@H](OC(=O)NCC#N)[C@H]2[C@@H]1CC[C@@H]2C` [I-176]: the inhibition at 320 µM (stock) in the experiment on HUFEC is 11.7%; in experiment [1], 2.2%.
Take `COC(=O)C1=CO[C@@H](OC(=O)NCc2ccncc2)[C@@H]2C(C)=CC[C@H]12` [I-116]: the inhibition at 320 µM (stock) in the experiment with HUFEC was determined as 5.6%; in experiment [1] it was 6.9%.
For the compound `COC(=O)C1=CO[C@@H](OC(=O)NCCN2CCCCC2)[C@H]2[C@@H]1CC[C@@H]2C` [I-223], the inhibition at 320 µM (stock) in the experiment on HUFEC turned out to be 18.8%; in experiment [1], 17.9%.
Consider `CCN1CCN(C(=O)O[C@@H]2OC=C(C(=O)OC)[C@H]3CC=C(C)[C@@H]23)CC1` [I-95], for which the inhibition at 320 µM (stock) in the experiment with HUFEC is 9.8%; in experiment [1], 4.5%.
For the compound `COC(=O)C1=CO[C@@H](OC(=O)Nc2ccc(Cl)cc2)[C@H]2[C@@H]1CC[C@@H]2C` [I-260], the inhibition at 320 µM (stock) in the experiment with HUFEC was found to be 8.9%; in experiment [1], 2.5%.
As to `CCCCCCC1=CC[C@@H]2C(C(=O)OC)=CO[C@@H](OC(=O)NC)[C@H]12` [I-299], the inhibition at 320 µM (stock) in the experiment on HUFEC came to 5.9%; in experiment [1] it was 8.8%.
`COC(=O)C1=CO[C@@H](OC(=O)NCCCCCO)[C@H]2[C@@H]1CC[C@@H]2C` [I-209]: the figures for the inhibition at 320 µM (stock) (in the experiment on HUFEC; in experiment [1]) were 8.9% and 4.9%, respectively.
In the case of `COC(=O)C1=COC[C@@H]2C(C)=CC[C@H]12` [I-302], the results for the inhibition at 320 µM (stock) (in the experiment on HUFEC; in experiment [1]) were 26.6% and 12.5%, respectively.
In the same order, the values of `CCNC(=O)O[C@@H]1OC=C(C(=O)OC)[C@H]2CC=C(C)[C@@H]12` [I-151] are 35.9% and 38.1%.
The like results for `COC(=O)C1=CO[C@@H](OC(=O)NCCc2ccccc2)[C@H]2[C@@H]1CC[C@@H]2C` [I-224] were, in that order, 15.6% and 10.5%.
Take `COC(=O)C1=CO[C@@H](OC(=O)NCc2ccc(Cl)cc2)[C@@H]2C(C)=CC[C@H]12` [I-109]: the inhibition at 320 µM (stock) in the experiment on HUFEC came out at 21.5%; in experiment [1] it was 7.2%.
For `COC(=O)C1=CO[C@@H](OC(=O)NCCc2ccccn2)[C@H]2[C@@H]1CC[C@@H]2C` [I-182], the inhibition at 320 µM (stock) in the experiment on HUFEC came to 3.9%; in experiment [1] it was 9.6%.
Take `COC(=O)C1=CO[C@@H](OC(=O)NCc2ccncc2)[C@H]2[C@@H]1CC[C@@H]2C` [I-221]: the inhibition at 320 µM (stock) stood at 15.6% with HUFEC and 24.5% in experiment [1].
On to `COC(=O)C1=CO[C@@H](OC(=O)NCC2CC2)[C@@H]2C(C)=CC[C@H]12` [I-139], for which the inhibition at 320 µM (stock) worked out at 9.7% with HUFEC and 25.6% in experiment [1].
Take `COC(=O)C1=CO[C@@H](OC(=O)NCCN(C)C)[C@H]2[C@@H]1CC[C@@H]2C` [I-222]: the values for the inhibition at 320 µM (stock) (in the experiment on HUFEC; in experiment [1]) were 3.7% and 20.8%, respectively.
As to `COC(=O)C1=CO[C@@H](OC(=O)Nc2ccc(Cl)c(Cl)c2)[C@H]2[C@@H]1CC[C@@H]2C` [I-255], the inhibition at 320 µM (stock) came to 6.5% in the experiment with HUFEC and 6% in experiment [1].
As to `COC(=O)C1=CO[C@@H](OC(=O)NCCc2ccc(O)c(OC)c2)[C@@H]2C(C)=CC[C@H]12` [I-146], the inhibition at 320 µM (stock) in the experiment on HUFEC came out at 17.2%; in experiment [1] it was 7.8%.
Take `COC(=O)C1=CO[C@@H](OC(=O)N(C)CCc2ccc(OC)c(OC)c2)[C@@H]2C(C)=CC[C@H]12` [I-122]: the values for the inhibition at 320 µM (stock) (with HUFEC; in experiment [1]) were 10.3% and 9.1%, respectively.
As to `COC(=O)C1=CO[C@@H](OC(=O)Nc2ccc(Cl)c(Cl)c2)[C@@H]2C(C)=CC[C@H]12` [I-163], the figures for the inhibition at 320 µM (stock) (with HUFEC; in experiment [1]) were 5.6% and 11.5%, respectively.
`CNC(=O)O[C@@H]1OC=C(C(=O)OC)[C@H]2CC=C(C)[C@@H]12` [I-174]: the inhibition at 320 µM (stock) was determined as 12.9% in the experiment with HUFEC and 67% in experiment [1].

In general, inhibition refers to the share of the control response that was lost under treatment.
